The values below come from PubChem BioAssay AID504936 (NMMLSC, 2011).

SMILES strings stand for the structures. Calls of active or inactive are those of the source.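 How the source made its calls: active means cytostatic effect above 60% on a scale from DMSO controls to rapamycin controls, holding yeast in G1/G0 phase; inactive means the rest.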

For this assay, the system named is S. cerevisiae BY4741 DNA content flow cytometry, cell cycle. Kind of assay: S. cerevisiae cell cycle DNA content profile – flow cytometry (AID 504936).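 On all read-outs here: yeast exposed to compound for three five or seven days before fixation.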 Conditions: at 10 µM; for G1/G0 population: stronger effect = higher value; for G2 population: measured here: G2 phase fraction, stronger effect = lower value; for apoptotic population: measured here: apoptotic fraction. In general terms: In flow cytometry, cells or beads pass a laser one at a time.

As for `O=C(/C=C/c1ccccc1)NC(=S)NNC(=O)Cc1cccs1`, the G1/G0 population was 80.1%, the G2 population is 3.91% and the apoptotic population was determined as 12.7%.
On to `O=C(c1cccc2nc3ccccc3nc12)N1CCOCC1`, for which the G1/G0 population is 76.5% (inactive), the G2 population was found to be 12.1% and the apoptotic population was determined as 9.75%.
As to `CCn1c2ccccc2c2n[nH]c(=S)nc21`, the G1/G0 population is 80% (inactive), the G2 population amounted to 11.1% and the apoptotic population is 6.8%.
As to `CCc1nc(NC(C)(C)C)c2cnn(-c3ccccc3)c2n1`, the G1/G0 population was 75.3% (inactive), the G2 population came to 13.1% and the apoptotic population stood at 9.99%.
Taken in the same sequence, the figures for `COc1ccc2nc3ccccc3nc2c1N` were 56.9% (inactive), 10.2% and 29.3%.
For the molecule `O=C(Nc1cccc(Cl)c1)Nc1ccc2nccnc2c1`, the G1/G0 population was 77.4% (inactive), the G2 population was 12% and the apoptotic population came to 8.93%.
Regarding `CNc1ccc2nc3ccccc3[n+](C)c2c1`, the G1/G0 population is 52.8% (inactive), the G2 population turned out to be 8.35% and the apoptotic population was found to be 36.6%.
On to `CC(C)OC(=O)CSc1nnc(-c2ccc(Cl)cc2Cl)o1`, for which the G1/G0 population is 79.6% (inactive), the G2 population turned out to be 12.9% and the apoptotic population was 6.08%.
Taken in the same sequence, the figures for `O=C(CN1CCN(c2ccccn2)CC1)Nc1ccccc1F` were 74% (inactive), 12.1% and 12%.
The corresponding values for `COc1ccc2cc(C3CC(c4ccco4)=NN3S(=O)(=O)c3ccccc3)c(Cl)nc2c1` (centres undefined) are 79% (inactive), 12.7% and 6.88%.
The corresponding values for `COc1ccc2nc3ccccc3[n+]([O-])c2c1` are 69.4% (inactive), 13.5% and 15%.
In the case of `Cc1cc2nc3ccc(N(C)C)cc3nc2cc1N`, the G1/G0 population was 67.3% (inactive), the G2 population was 5.62% and the apoptotic population is 20.3%.
For the molecule `COc1ccc2nc3ccccc3nc2c1`, the G1/G0 population is 65.9% (inactive), the G2 population worked out at 12.7% and the apoptotic population came out at 18.8%.
As to `O=C(Nc1ccc2nc3ccccc3nc2c1)c1ccc(Br)cc1`, the G1/G0 population is 77.7% (inactive), the G2 population came out at 12.5% and the apoptotic population amounted to 8.37%.
For `O=c1[nH]c(O)c(C=Nc2ccc(F)c(Cl)c2)c(=O)[nH]1`, the G1/G0 population is 78.7% (inactive), the G2 population worked out at 12.7% and the apoptotic population stood at 7.01%.
For `CCN(CC)C(=O)c1ccc2nc3ccccc3nc2c1`, the G1/G0 population is 78.8% (inactive), the G2 population is 11.3% and the apoptotic population was found to be 8.05%.
Take `Cn1c(O)c(C(=Nc2ccc(F)cc2)c2ccccc2Cl)c(=O)n(C)c1=O`: the G1/G0 population was 72% (inactive), the G2 population came to 14.8% and the apoptotic population was 11.1%.
Taken in the same sequence, the figures for `N#CC(c1nc2ccccc2nc1N1CCCC1)S(=O)(=O)c1ccccc1` (centres undefined) were 75.8% (inactive), 11.9% and 9.82%.
Consider `Cc1ccccc1NC(=O)c1cccc2nc3ccccc3nc12`, for which the G1/G0 population is 72.9% (inactive), the G2 population stood at 12.2% and the apoptotic population came to 13.2%.
The corresponding values for `CCCCCNC(=O)C(=O)C1C(=O)Nc2ccccc21` (centres undefined) are 71.4% (inactive), 6.62% and 20%.
As for `O=C(O)c1cnc2ccccc2n1`, the G1/G0 population was 78.8% (inactive), the G2 population came to 12.5% and the apoptotic population stood at 7.02%.
`Oc1cccc2nc3ccccc3nc12`: the G1/G0 population was 43% (inactive), the G2 population worked out at 9.27% and the apoptotic population amounted to 44%.
The corresponding values for `CC(C)OC(=O)c1ccc2nc3ccccc3nc2c1` are 78.1% (inactive), 12.4% and 7.62%.
The corresponding values for `CC(C)(C)Nc1ncnc2c1cnn2-c1ccccc1` are 62.9% (inactive), 10.3% and 25%.
On to `C#CCSc1ccc(-c2ccc([N+](=O)[O-])cc2)o1`, for which the G1/G0 population was 79.6% (inactive), the G2 population came out at 11% and the apoptotic population amounted to 8.02%.
The corresponding values for `CCN(CC)C(=O)c1cccc2nc3ccccc3nc12` are 42.7% (inactive), 8.88% and 46.6%.
The corresponding values for `c1ccc2[nH]c3cc4ncnc4cc3nc2c1` are 58.6% (inactive), 8.26% and 30.4%.
For `CC(=O)Nc1ccc2nc3ccccc3nc2c1`, the G1/G0 population was 72.9% (inactive), the G2 population came to 11.9% and the apoptotic population amounted to 12.6%.
The corresponding values for `O=C1c2c(O)ccc(O)c2C(=O)c2c(NCCNCCO)ccc(NCCNCCO)c21` are 0.072% (inactive), 0% and 99.9%.
The corresponding values for `N#CCc1nn(-c2ccccc2)c2ncnc(N)c12` are 78.8% (inactive), 10.6% and 8.22%.
`O=C(/C=C/c1cccs1)NC(=S)NNC(=O)Cc1cccs1`: the G1/G0 population is 73% (inactive), the G2 population came out at 11.1% and the apoptotic population turned out to be 14%.
Taken in the same sequence, the figures for `CC(C)(C)n1nc(-c2ccc(Cl)cc2)c2c(N)ncnc21` were 70.8% (inactive), 0.23% and 12.6%.
For `COc1cccc2nc3cc(C)c(C)cc3nc12`, the G1/G0 population was 64.8% (inactive), the G2 population came to 11% and the apoptotic population worked out at 21.7%.
As for `CSc1nnc(-c2ccc([N+](=O)[O-])cc2)o1`, the G1/G0 population was 79.2% (inactive), the G2 population is 10.8% and the apoptotic population was 8.39%.
Taken in the same sequence, the figures for `C[n+]1c2ccccc2nc2ccc(NCCO)cc21` were 77.6% (inactive), 7.26% and 8.98%.
Regarding `FC(F)(F)c1nc2cc3nc4ccccc4[nH]c3cc2n1`, the G1/G0 population is 71.5% (inactive), the G2 population is 10.6% and the apoptotic population was found to be 12.3%.
The corresponding values for `CCC(=Nc1ccccc1O)C1=C(O)CC(c2ccccc2)CC1=O` (centres undefined) are 74.7% (inactive), 12.1% and 12%.
On to `COc1ccc2nc3ccccc3nc2c1NC(=O)c1ccccc1Cl`, for which the G1/G0 population is 79.9% (inactive), the G2 population amounted to 12.2% and the apoptotic population was determined as 6.11%.
The corresponding values for `CC(C)CSc1nnc2c3ccccc3n(C)c2n1` are 75% (inactive), 12% and 11.2%.
The corresponding values for `C=CCOn1c(=O)c(-c2cccs2)[n+]([O-])c2ccccc21` are 73.2% (inactive), 13.9% and 11.3%.
The corresponding values for `Cc1cc(C)c2[nH]c3nc(SCC(=O)O)nnc3c2c1` are 79.8% (inactive), 10.9% and 7.85%.
Turning to `Cc1ccc(-c2nn(C(C)(C)C)c3ncnc(N)c23)cc1`, the G1/G0 population is 70.3% (inactive), the G2 population is 9.27% and the apoptotic population was 16.3%.
Taken in the same sequence, the figures for `C=CCSc1ccc(-c2ccc([N+](=O)[O-])cc2)o1` were 65.8% (inactive), 10.1% and 21.7%.
With `Cc1cc(C)cc(NC(=O)CN2CCN(c3ccccn3)CC2)c1`, the G1/G0 population is 73.5% (inactive), the G2 population came out at 12.4% and the apoptotic population turned out to be 12.2%.
Taken in the same sequence, the figures for `C[C@@]12C(=O)OC(=O)[C@]1(C)C1CCC2O1` were 61.6% (inactive), 9.56% and 24.9%.
In the case of `COc1ccc2c(c1)c1nnc(SC)nc1n2C`, the G1/G0 population was 58.9% (inactive), the G2 population turned out to be 11.7% and the apoptotic population was 27.7%.
Turning to `c1ccc2nc3ccccc3nc2c1`, the G1/G0 population was 71.8% (inactive), the G2 population came to 13.2% and the apoptotic population stood at 12.3%.
The corresponding values for `CN(C)CCNc1ncnc2c1cnn2-c1ccc(Cl)cc1` are 52.4% (inactive), 10.3% and 35.5%.
As for `CC(C)(C)n1nc(-c2ccc(F)cc2)c2c(N)ncnc21`, the G1/G0 population is 70.5% (inactive), the G2 population came to 3.33% and the apoptotic population was 14.9%.
Regarding `O=C(OCc1c(F)cccc1Cl)c1cnc2ccccc2n1`, the G1/G0 population was 73.8% (inactive), the G2 population was found to be 13.8% and the apoptotic population worked out at 10.5%.
Take `Nc1cc2nc3ccccc3nc2cc1N`: the G1/G0 population was 79% (inactive), the G2 population was determined as 9.84% and the apoptotic population is 9%.
The corresponding values for `Cn1c(=O)[nH]c2nncnc2c1=O` are 73.1% (inactive), 12% and 12.7%.
Taken in the same sequence, the figures for `CCN(CC)C(=O)CSc1nnc(-c2cccc(OC)c2)o1` were 70.5% (inactive), 12.1% and 15.5%.
